Results on 16 compounds are retold here after ChEMBL document CHEMBL4382217 (Bioorg Med Chem, 2018).

The subject of one series is NCI-H1975. The experiment in a line: Antiproliferative activity against human NCI-H1975 cells harboring EGFR T790M/L858R double mutant after 72 hrs by MTS assay. It counts as functional, cell-based. The conditions noted are these: Homo sapiens, NCI-H1975, 72 h. A general note: Tetrazolium dyes change colour on reduction, which living cells bring about.
A short description of series [1]: Selectivity index, ratio of GI50 for human A431 cells harboring WT EGFR to GI50 for human NCI-H1975 cells harboring EGFR T790M/L858R double mutant.
Series [2] in a line: (§1) Antiproliferative activity against human A431 cells harboring WT EGFR after 72 hrs by MTS assay. The note with it: human, A431 cells harboring WT EGFR. It counts as cell-based, A-431.
For the next series, the system named is HCC827. The experiment in a line: Antiproliferative activity against human HCC827 cells harboring EGFR mutant after 72 hrs by MTS assay. It counts as functional, cell-based. The note with it: HCC827, 72 h.
The species named for another series is Homo sapiens. The experiment in a line: Selectivity index, ratio of IC50 for recombinant human N-terminal GST-tagged EGFR (696-end residues) expressed in baculovirus expression system to IC50 for recombinant human N-terminal GST-tagged EGFR T790M/L858R double mutant (696-end residues).
Another series concerns Calu-3. Kind of series: Antiproliferative activity against human Calu3 cells harboring WT EGFR after 72 hrs by MTS assay. It counts as cell-based. The conditions noted are these: Calu-3, 72 h.
Series [3] in a line: Drug level in human liver microsomes treated with N-(2-((2-(Dimethylamino)ethyl)(methyl)amino)-4-methoxy-5-((4-(1-methyl-1H-pyrrolo[3,2-b]pyridin-3-yl)pyrimidin-2-yl)amino)phenyl)acrylamide by LC-MS/MS analysis. It is filed as ADME, Microsome.
Series [4] has as its target Epidermal growth factor receptor (Homo sapiens, UniProt P00533, L858R/T790M). Kind of series: Inhibition of recombinant human N-terminal GST-tagged EGFR T790M/L858R double mutant (696-end residues) by fluorescence assay.
For a further series, the system named is PC-9. The experiment in a line: Antiproliferative activity against human PC9 cells harboring EGFR mutant after 72 hrs by MTS assay. It counts as functional, cell-based. The conditions noted are these: PC-9, 72 h.
Series [5] deals with Epidermal growth factor receptor (Homo sapiens, UniProt P00533). Kind of series: Inhibition of recombinant human N-terminal GST-tagged EGFR (696-end residues) expressed in baculovirus expression system using Srctide as substrate by fluorescence assay.
Sequence of Epidermal growth factor receptor (Homo sapiens, UniProt P00533) (P00533 whole entry): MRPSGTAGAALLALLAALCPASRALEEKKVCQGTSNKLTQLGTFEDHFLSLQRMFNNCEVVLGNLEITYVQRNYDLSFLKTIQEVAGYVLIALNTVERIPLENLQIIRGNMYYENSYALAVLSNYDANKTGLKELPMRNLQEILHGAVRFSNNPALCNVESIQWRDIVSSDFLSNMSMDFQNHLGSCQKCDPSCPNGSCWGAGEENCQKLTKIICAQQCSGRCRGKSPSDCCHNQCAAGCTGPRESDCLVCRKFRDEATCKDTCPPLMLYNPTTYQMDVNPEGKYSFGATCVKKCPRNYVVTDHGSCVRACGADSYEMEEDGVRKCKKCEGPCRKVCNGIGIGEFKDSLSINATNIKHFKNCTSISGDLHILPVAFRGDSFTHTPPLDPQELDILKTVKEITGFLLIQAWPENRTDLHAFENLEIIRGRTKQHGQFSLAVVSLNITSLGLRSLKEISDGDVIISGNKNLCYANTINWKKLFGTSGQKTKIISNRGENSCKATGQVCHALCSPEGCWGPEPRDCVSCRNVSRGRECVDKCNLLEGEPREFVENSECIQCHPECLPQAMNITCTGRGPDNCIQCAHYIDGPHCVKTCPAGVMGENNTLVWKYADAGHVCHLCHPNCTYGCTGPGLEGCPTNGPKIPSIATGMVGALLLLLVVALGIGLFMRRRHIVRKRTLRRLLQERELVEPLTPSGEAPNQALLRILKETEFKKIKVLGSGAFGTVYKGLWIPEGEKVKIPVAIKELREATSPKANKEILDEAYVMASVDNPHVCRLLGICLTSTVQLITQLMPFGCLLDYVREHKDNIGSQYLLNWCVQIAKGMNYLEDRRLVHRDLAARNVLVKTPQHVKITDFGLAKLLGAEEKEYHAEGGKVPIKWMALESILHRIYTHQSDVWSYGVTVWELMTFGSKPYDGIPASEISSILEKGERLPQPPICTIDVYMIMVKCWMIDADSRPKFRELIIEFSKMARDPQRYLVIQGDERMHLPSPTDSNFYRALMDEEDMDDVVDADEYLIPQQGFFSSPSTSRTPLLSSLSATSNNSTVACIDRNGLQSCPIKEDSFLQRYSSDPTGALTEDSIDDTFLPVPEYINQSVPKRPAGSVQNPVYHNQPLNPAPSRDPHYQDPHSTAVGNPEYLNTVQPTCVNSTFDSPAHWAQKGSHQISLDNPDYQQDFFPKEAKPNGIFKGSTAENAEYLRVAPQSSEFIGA
A further series deals with A-431. Described as §1. It is filed as cell-based. The conditions noted are these: Homo sapiens, A-431, 72 h.
Series [6] addresses Epidermal growth factor receptor (Homo sapiens, UniProt P00533, L858R). Kind of series: Inhibition of recombinant human GST-tagged EGFR L858R mutant expressed in baculovirus expression system by fluorescence assay.
Another series deals with Calu-6. Kind of series: Antiproliferative activity against human Calu6 cells harboring WT EGFR after 72 hrs by MTS assay. The note with it: Calu-6, 72 h. It counts as cell-based.

Sequence of Epidermal growth factor receptor (Homo sapiens, UniProt P00533, L858R/T790M) (P00533 25-1210 T790M/L858R limits assumed): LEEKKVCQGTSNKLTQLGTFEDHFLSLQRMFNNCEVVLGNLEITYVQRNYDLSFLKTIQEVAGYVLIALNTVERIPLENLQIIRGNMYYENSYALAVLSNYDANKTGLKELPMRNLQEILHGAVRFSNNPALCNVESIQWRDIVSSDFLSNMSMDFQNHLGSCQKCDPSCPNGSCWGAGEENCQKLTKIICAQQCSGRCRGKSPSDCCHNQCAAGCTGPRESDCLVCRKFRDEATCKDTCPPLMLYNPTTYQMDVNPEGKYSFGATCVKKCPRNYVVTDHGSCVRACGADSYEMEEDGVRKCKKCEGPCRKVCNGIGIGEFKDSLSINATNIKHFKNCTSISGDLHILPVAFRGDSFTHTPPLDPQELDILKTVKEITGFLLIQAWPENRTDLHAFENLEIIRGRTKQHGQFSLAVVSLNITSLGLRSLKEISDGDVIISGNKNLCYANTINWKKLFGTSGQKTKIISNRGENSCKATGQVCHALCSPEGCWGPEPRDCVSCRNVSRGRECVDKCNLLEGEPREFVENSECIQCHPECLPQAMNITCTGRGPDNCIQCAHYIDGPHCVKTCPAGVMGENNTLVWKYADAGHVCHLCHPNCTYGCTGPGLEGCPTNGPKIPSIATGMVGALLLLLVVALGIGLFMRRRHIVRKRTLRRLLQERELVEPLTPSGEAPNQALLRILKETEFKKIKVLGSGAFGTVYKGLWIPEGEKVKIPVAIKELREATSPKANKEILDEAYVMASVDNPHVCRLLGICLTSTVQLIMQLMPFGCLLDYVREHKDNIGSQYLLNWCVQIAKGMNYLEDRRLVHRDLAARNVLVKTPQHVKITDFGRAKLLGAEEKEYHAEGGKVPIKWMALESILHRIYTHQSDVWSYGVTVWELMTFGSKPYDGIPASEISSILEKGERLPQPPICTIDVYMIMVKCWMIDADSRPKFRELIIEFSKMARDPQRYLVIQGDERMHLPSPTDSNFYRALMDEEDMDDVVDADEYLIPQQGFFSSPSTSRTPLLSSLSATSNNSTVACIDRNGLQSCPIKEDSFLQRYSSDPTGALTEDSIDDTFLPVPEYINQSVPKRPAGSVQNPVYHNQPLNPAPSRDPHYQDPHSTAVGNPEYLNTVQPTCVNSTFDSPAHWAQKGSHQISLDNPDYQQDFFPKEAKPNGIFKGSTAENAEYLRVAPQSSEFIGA
Sequence of Epidermal growth factor receptor (Homo sapiens, UniProt P00533, L858R) (P00533 25-1210 L858R limits assumed): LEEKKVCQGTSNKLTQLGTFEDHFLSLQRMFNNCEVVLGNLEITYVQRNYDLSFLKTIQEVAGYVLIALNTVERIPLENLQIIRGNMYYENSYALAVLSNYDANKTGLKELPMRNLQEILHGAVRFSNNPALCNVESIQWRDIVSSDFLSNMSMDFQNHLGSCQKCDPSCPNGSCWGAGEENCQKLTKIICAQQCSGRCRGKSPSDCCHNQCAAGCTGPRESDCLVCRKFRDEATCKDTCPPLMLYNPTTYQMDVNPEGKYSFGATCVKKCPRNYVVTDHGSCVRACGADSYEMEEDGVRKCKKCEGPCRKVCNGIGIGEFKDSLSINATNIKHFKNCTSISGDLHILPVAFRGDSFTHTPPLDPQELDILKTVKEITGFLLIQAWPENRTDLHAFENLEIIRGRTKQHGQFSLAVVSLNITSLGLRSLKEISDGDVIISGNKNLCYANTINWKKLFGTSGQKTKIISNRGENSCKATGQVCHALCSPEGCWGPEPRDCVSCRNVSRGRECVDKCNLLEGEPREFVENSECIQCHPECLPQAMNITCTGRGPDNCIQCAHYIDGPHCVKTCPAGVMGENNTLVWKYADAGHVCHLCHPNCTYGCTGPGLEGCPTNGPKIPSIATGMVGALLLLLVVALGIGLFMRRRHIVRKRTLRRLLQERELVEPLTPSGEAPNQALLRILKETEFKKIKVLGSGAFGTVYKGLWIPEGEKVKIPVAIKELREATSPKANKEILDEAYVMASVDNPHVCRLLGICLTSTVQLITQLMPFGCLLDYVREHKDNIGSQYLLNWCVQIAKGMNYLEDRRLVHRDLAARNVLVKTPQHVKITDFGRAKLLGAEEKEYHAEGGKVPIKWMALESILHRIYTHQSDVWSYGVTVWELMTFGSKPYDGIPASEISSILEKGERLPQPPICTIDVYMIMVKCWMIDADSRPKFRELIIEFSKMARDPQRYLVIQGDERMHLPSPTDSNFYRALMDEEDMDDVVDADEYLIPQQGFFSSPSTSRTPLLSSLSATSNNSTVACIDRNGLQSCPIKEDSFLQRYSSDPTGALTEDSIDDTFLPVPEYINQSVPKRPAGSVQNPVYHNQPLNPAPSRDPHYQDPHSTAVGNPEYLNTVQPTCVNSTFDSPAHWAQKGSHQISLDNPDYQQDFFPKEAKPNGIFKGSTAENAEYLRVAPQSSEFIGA

One may read the GI50 as the concentration at which growth is held to half of that of the control. A high value points to less potent growth inhibition. Consider `C=CC(=O)Nc1cc(Nc2nccc(-c3noc4ccccc34)n2)c(OC)cc1N1CCC[C@H]1CN(C)C`, for which the GI50 with NCI-H1975 stood at 844 nM. Also, the RatioGI50 in series [1] is on record as over 75.1. Also, the GI50 at 72 h in [2] was over 10000 nM.
The like results for `C=CC(=O)Nc1cc(Nc2nccc(-c3cn(C)c4cccnc34)n2)c(OC)cc1N1CCC[C@H]1CN(C)C` were, in that order, 2880 nM, 0.7 and 2100 nM.
A word on the IC50: it is the concentration that gives 50% inhibition. For `C=CC(=O)Nc1cc(Nc2nccc(-c3cn(C)c4cccnc34)n2)c(OC)cc1NCCN(C)C`, the IC50 is 790 nM in the series with NCI-H1975; 75 nM in the series with HCC827; over 10 µM with Calu-3; 15 µM in series [4]; 740 nM in the series on PC-9; 77 µM in [5]. The figures for the IC50 (in the series on A-431; in [6]; in the series with Calu-6) were 6.78 µM, 12 µM and over 10 µM, respectively. Besides, the Ratio IC50 in the series filed under Homo sapiens was 5.1. In addition, the Drug metabolism entry in series [3] is “Metabolite_Detected”.
In turn, `C=CC(=O)Nc1cc(Nc2nccc(-c3nn(C)c4ccsc34)n2)c(OC(F)F)cc1N(C)CCN(C)C` returned a GI50 with NCI-H1975 of 6.5 nM. Also, the RatioGI50 in series [1] is on record as 13.2. In series [2], this compound returned a GI50 at 72 h of 85.8 nM.
The like results for `C=CC(=O)Nc1cc(Nc2nccc(-c3cn(C)c4cccnc34)n2)c(OC(F)F)cc1N(C)CCN(C)C` were, in that order, 6.7 nM, 44.1 and 296 nM.
Consider `C=CC(=O)Nc1cc(Nc2nccc(-c3cn(C)c4cccnc34)n2)c(OC)cc1N1CCN(C)CC1`, for which the GI50 in the series with NCI-H1975 was determined as 175 nM. The RatioGI50 in series [1] turned out to be 8.9. In series [2], this compound showed a GI50 at 72 h of 1560 nM.
The matching figures for `C=CC(=O)Nc1cc(Nc2nccc(-c3noc4ccccc34)n2)c(OC)cc1N(C)CCN(C)C`: 7.3 nM, 15.1 and 110 nM.
The like results for `C=CC(=O)Nc1cc(Nc2nccc(-c3cn(C)c4cccnc34)n2)c(OC(F)F)cc1N1CCN(C)CC1` were, in that order, 166 nM, 8.7 and 1440 nM.
The like results for `C=CC(=O)Nc1cc(Nc2nccc(-c3nn(C)c4ccsc34)n2)c(OC)cc1N(C)CCN(C)C` were, in that order, 10.7 nM, 19.5 and 209 nM.
On to `C=CC(=O)Nc1cc(Nc2nccc(-c3noc4ccccc34)n2)c(OC)cc1N1CCN(C)CC1`, for which the GI50 in the series on NCI-H1975 came to 168 nM. Moreover, the RatioGI50 in series [1] is 4.3. The compound also displayed a GI50 at 72 h in [2] of 728 nM.
The matching figures for `C=CC(=O)Nc1cc(Nc2nccc(-c3noc4ccccc34)n2)c(OC(F)F)cc1N1CCN(C)CC1`: 49 nM, 35.1 and 1720 nM.
In the case of `C=CC(=O)Nc1cc(Nc2nccc(-c3cn(C)c4cccnc34)n2)c(OC)cc1N(C)CCNC`, the IC50 was 270 nM with NCI-H1975; 42 nM in the series with HCC827; over 10 µM in the series on Calu-3; 6.6 µM in [4]; 330 nM in the series on PC-9; 277 µM in series [5]. The IC50 with A-431 is 3.47 µM; in [6], 12 µM; in the series on Calu-6 it was over 10 µM. In addition, in the series filed under Homo sapiens, the Ratio IC50 was determined as 42. Also, the Drug metabolism entry in series [3] is “Metabolite_Detected”.
In the series with NCI-H1975, `C=CC(=O)Nc1cc(Nc2nccc(-c3noc4ccccc34)n2)c(OC(F)F)cc1N(C)CCN(C)C` had a GI50 of 4 nM. In addition, the RatioGI50 in [1] came out at 22.3. In [2], this compound yielded a GI50 at 72 h of 89.1 nM.
The matching figures for `C=CC(=O)Nc1cc(Nc2nccc(-c3nn(C)c4ccsc34)n2)c(OC(F)F)cc1N1CCN(C)CC1`: 296 nM, 3.8 and 1130 nM.
The matching figures for `C=CC(=O)Nc1cc(Nc2nccc(-c3noc4ccccc34)n2)c(OC(F)F)cc1N1CCC[C@H]1CN(C)C`: 285 nM, 3.5 and 1000 nM.
Compound `C=CC(=O)Nc1cc(Nc2nccc(-c3cn(C)c4cccnc34)n2)c(OC(F)F)cc1N1CCC[C@H]1CN(C)C` came in with a GI50 with NCI-H1975 of 184 nM. Further, the RatioGI50 in series [1] was 3.9. Further, the GI50 at 72 h in series [2] amounted to 724 nM.
